Assay [1] addresses Casein kinase I isoform delta (Homo sapiens) (UniProt P48730). The assay can be described thus: Inhibition of N-terminal GST-fused human CK1delta catalytic domain (1 to 294 residues) expressed in Escherichia coli expression system using CKtide as substrate at 1 uM in presence of ATP by Mobility shift assay.
Assay [2] addresses Aurora kinase C (Homo sapiens) (UniProt Q9UQB9). In words: Inhibition of N-terminal GST-fused full length human AurC (1 to 275 residues) expressed in baculovirus-infected Sf21 cells using Kemptide as substrate at 1 uM in presence of ATP by Mobility shift assay.
Assay [3] addresses Mitogen-activated protein kinase 8 (Homo sapiens) (UniProt P45983). The assay can be described thus: Inhibition of N-terminal GST-fused human JNK1 catalytic domain (2 to 364 residues) expressed in Escherichia coli expression system using Modified ERKtide as substrate at 1 uM in presence of ATP by Mobility shift assay.
Assay [4] has as its target Focal adhesion kinase 1 (Homo sapiens) (UniProt Q05397). In words: Inhibition of N-terminal GST-fused truncated human FAK (376 to 1052 residues) expressed in baculovirus-infected Sf21 cells using Blk/Lyntide as substrate at 1 uM in presence of ATP by Mobility shift assay.
The target in assay [5] is Vascular endothelial growth factor receptor 1 (Homo sapiens) (UniProt P17948). The assay can be described thus: Inhibition of N-terminal GST-fused human FLT1 cytoplasmic domain (781 to 1338 residues) expressed in baculovirus-infected Sf21 cells using CSKtide as substrate at 1 uM in presence of ATP by Mobility shift assay.
Assay [6] deals with Tyrosine-protein kinase Mer (Homo sapiens) (UniProt Q12866). In words: Inhibition of N-terminal GST-tagged human MER cytoplasmic domain (528 to 999 residues) expressed in baculovirus-infected Sf21 cells using CSKtide as substrate at 1 uM in presence of ATP by Mobility shift assay.
The target in assay [7] is Homeodomain-interacting protein kinase 2 (Homo sapiens) (UniProt Q9H2X6). The assay can be described thus: Inhibition of N-terminal GST-fused full length human HIPK2 (1 to 1198 residues) expressed in baculovirus expression system using DYRKtide-F as substrate at 1 uM in presence of ATP by Mobility shift assay.
The target of assay [8] is Maternal embryonic leucine zipper kinase (Homo sapiens) (UniProt Q14680). The assay can be described thus: Inhibition of N-terminal GST-fused truncated human MELK (1 to 493 residues) expressed in Escherichia coli expression system using GS peptide as substrate at 1 uM in presence of ATP by Mobility shift assay.
Assay [9] addresses Insulin receptor (Homo sapiens) (UniProt P06213). The assay can be described thus: Inhibition of N-terminal fused human INSR catalytic domain (1005 to 1310 residues) expressed in baculovirus-infected Sf21 cells using IRS1 as substrate at 1 uM in presence of ATP by Mobility shift assay.
In assay [10] the target is Non-receptor tyrosine-protein kinase TNK1 (Homo sapiens) (UniProt Q13470). The assay can be described thus: Inhibition of N-terminal GST-tagged human TNK1 catalytic domain (106 to 390 residues) expressed in baculovirus-infected Sf21 cells using CSKtide as substrate at 1 uM in presence of ATP by Mobility shift assay.
Assay [11] has as its target Rho-associated protein kinase 2 (Homo sapiens) (UniProt O75116). The assay can be described thus: Inhibition of N-terminal GST-fused human ROCK2 catalytic domain (1 to 553 residues) expressed in baculovirus expression system using LIMKtide as substrate at 1 uM in presence of ATP by Mobility shift assay.
Assay [12] deals with Leukocyte tyrosine kinase receptor (Homo sapiens) (UniProt P29376). In words: Inhibition of N-terminal GST-tagged human LTK catalytic domain (498 to 796 residues) expressed in baculovirus-infected Sf21 cells using Srctide as substrate at 1 uM in presence of ATP by Mobility shift assay.
Assay [13] deals with Ephrin type-B receptor 4 (Homo sapiens) (UniProt P54760). In words: Inhibition of N-terminal GST-fused human EPHB4 cytoplasmic domain (577 to 987 residues) expressed in baculovirus-infected Sf21 cells using Blk/Lyntide as substrate at 1 uM in presence of ATP by Mobility shift assay.
Assay [14] addresses PAS domain-containing serine/threonine-protein kinase (Homo sapiens) (UniProt Q96RG2). In words: Inhibition of N-terminal GST-fused human PASK catalytic domain (949 to 1323 residues) expressed in baculovirus expressing system using GS peptide as substrate at 1 uM in presence of ATP by Mobility shift assay.
In assay [15] the target is Tyrosine-protein kinase JAK1 (Homo sapiens) (UniProt P23458). In words: Inhibition of N-terminal GST-fused human JAK1 catalytic domain (850 to 1154 residues) expressed in baculovirus-infected Sf21 cells using JAK1 substrate peptide at 1 uM in presence of ATP by Mobility shift assay.
For assay [16], the target named is Serine/threonine-protein kinase 24 (Homo sapiens) (UniProt Q9Y6E0). In words: Inhibition of N-terminal GST-fused full length human MST3 (1 to 431 residues) expressed in baculovirus expression system using Moesin-derived peptide as substrate at 1 uM in presence of ATP by Mobility shift assay.
Chain of Serine/threonine-protein kinase 24 (Homo sapiens) (Q9Y6E0 whole entry, looked up, the tested form may be a part): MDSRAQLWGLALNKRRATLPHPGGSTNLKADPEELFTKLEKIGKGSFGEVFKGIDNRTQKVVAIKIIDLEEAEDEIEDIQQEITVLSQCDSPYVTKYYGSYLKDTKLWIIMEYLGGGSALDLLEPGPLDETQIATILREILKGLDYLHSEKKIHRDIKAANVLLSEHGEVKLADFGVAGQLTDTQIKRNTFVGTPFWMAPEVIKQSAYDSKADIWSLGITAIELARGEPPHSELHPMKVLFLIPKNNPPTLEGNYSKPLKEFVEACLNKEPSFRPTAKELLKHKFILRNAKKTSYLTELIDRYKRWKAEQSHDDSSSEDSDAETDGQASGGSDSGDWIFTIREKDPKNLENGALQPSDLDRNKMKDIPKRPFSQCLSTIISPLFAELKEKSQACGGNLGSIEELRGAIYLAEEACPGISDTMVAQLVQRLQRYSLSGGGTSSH
Assay [17] concerns the target Calcium/calmodulin-dependent protein kinase type II subunit alpha (Homo sapiens) (UniProt Q9UQM7). The assay can be described thus: Inhibition of N-terminal GST-fused full length human CAMK2a (1 to 478 residues) expressed in baculovirus-infected Sf21 cells using GS peptide as substrate at 1 uM in presence of ATP by Mobility shift assay.
The target of assay [18] is Calcium/calmodulin-dependent protein kinase type II subunit beta (Homo sapiens) (UniProt Q13554). The assay can be described thus: Inhibition of N-terminal GST-tagged full length human CAMK2b (1 to 503 residues) expressed in baculovirus-infected Sf21 cells using GS peptide as substrate at 1 uM in presence of ATP by Mobility shift assay.
Chain of Calcium/calmodulin-dependent protein kinase type II subunit beta (Homo sapiens) (Q13554 whole entry, the tested form may be a part): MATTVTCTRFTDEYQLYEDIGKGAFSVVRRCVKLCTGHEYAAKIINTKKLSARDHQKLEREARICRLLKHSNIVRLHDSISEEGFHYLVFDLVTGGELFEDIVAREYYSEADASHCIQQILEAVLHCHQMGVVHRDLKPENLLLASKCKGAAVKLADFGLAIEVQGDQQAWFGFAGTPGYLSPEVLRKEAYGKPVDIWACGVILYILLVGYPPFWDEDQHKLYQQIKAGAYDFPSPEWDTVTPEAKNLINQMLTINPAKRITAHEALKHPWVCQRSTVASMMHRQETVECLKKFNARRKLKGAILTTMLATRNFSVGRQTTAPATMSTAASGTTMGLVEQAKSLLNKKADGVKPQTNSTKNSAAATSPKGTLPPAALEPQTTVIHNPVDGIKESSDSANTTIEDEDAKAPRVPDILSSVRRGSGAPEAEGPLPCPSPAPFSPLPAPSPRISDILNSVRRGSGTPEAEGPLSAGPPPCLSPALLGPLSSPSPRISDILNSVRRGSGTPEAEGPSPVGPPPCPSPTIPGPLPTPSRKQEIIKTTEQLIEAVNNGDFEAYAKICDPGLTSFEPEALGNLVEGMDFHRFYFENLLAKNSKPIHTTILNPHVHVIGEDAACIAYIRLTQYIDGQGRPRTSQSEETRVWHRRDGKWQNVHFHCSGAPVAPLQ
Assay [19] addresses Serine/threonine-protein kinase PAK 4 (Homo sapiens) (UniProt O96013). The assay can be described thus: Inhibition of N-terminal GST-fused full length human PAK4 (1 to 591 residues) expressed in baculovirus expression system using SGKtide as substrate at 1 uM in presence of ATP by Mobility shift assay.
Assay [20] has as its target Proto-oncogene tyrosine-protein kinase receptor Ret (Homo sapiens) (UniProt P07949). The assay can be described thus: Inhibition of N-terminal GST-tagged human RET cytoplasmic domain (658 to 1114 residues) expressed in baculovirus-infected Sf21 cells using CSKtide as substrate at 1 uM in presence of ATP by Mobility shift assay.
For assay [21], the target named is Homeodomain-interacting protein kinase 4 (Homo sapiens) (UniProt Q8NE63). The assay can be described thus: Inhibition of N-terminal GST-fused full length human HIPK4 (1 to 616 residues) expressed in baculovirus expression system using DYRKtide-F as substrate at 1 uM in presence of ATP by Mobility shift assay.
Assay [22] addresses Ribosomal protein S6 kinase alpha-3 (Homo sapiens) (UniProt P51812). The assay can be described thus: Inhibition of N-terminal GST-fused human full length RSK2 (1 to 740 residues) expressed in baculovirus expression system using S6K peptide(N-FL) as substrate at 1 uM in presence of ATP by Mobility shift assay.

Chain of Proto-oncogene tyrosine-protein kinase receptor Ret (Homo sapiens) (P07949 whole entry, the tested form may be a part): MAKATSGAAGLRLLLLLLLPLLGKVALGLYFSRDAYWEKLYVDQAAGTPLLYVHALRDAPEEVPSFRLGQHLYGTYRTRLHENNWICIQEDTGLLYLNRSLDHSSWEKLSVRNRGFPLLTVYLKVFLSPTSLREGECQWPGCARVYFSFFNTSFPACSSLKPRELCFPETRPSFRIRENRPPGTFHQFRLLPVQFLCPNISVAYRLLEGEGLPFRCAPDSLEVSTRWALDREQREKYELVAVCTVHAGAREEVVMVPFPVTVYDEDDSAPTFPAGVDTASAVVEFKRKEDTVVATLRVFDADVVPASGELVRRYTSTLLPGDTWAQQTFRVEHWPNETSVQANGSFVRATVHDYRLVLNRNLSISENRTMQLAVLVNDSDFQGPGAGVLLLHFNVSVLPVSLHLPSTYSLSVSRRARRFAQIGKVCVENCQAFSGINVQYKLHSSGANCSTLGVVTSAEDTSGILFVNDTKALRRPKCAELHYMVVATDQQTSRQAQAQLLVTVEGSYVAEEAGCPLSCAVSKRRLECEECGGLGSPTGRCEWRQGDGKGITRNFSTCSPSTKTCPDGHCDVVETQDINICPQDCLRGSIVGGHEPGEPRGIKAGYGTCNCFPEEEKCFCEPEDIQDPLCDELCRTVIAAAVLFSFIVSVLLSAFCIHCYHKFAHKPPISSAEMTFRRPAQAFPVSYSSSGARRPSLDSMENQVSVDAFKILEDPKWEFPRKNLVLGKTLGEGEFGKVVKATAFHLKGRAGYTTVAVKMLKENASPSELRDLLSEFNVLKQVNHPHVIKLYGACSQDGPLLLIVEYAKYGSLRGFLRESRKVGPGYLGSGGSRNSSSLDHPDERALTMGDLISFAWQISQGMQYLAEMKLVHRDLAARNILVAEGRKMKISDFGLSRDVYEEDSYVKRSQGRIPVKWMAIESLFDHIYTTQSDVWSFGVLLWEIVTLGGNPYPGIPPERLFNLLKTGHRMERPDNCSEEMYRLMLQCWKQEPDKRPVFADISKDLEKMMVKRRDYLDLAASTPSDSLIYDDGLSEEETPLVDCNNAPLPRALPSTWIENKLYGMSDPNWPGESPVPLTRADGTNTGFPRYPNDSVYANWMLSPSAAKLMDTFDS
Chain of Ribosomal protein S6 kinase alpha-3 (Homo sapiens) (P51812 whole entry, the tested form may be a part): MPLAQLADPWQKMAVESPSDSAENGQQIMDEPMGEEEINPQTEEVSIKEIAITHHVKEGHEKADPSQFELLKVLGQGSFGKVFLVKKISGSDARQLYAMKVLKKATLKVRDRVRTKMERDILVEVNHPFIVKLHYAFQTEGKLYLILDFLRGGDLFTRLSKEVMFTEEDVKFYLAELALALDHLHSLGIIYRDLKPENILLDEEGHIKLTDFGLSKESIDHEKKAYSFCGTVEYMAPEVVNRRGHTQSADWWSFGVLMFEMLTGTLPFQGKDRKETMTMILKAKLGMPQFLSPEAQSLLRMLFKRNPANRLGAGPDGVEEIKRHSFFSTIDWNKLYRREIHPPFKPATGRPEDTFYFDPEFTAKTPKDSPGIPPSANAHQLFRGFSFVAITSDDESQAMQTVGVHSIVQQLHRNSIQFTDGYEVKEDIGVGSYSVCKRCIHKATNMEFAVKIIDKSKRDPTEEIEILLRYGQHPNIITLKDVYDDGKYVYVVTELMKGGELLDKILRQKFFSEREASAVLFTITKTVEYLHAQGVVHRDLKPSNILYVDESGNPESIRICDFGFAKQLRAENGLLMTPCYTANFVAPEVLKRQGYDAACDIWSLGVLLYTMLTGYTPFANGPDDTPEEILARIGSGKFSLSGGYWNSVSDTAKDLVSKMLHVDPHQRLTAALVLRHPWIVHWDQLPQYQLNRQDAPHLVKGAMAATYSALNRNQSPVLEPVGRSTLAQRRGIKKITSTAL
Chain of Serine/threonine-protein kinase PAK 4 (Homo sapiens) (O96013 whole entry, looked up, the tested form may be a part): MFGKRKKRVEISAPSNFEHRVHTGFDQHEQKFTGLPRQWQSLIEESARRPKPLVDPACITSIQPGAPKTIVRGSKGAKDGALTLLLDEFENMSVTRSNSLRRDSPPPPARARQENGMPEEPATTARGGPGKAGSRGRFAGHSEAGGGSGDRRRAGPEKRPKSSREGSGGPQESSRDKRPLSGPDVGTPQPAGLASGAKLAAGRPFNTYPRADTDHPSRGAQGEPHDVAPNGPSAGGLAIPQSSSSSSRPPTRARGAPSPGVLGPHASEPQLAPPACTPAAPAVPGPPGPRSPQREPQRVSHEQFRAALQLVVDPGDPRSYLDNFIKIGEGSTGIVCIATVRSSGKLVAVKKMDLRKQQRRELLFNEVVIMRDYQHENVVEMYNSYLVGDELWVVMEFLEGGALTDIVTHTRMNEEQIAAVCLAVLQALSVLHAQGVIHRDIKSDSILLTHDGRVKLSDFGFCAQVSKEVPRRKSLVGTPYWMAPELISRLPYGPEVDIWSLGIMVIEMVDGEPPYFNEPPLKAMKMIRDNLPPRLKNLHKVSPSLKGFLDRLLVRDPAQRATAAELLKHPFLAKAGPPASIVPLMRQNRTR
Chain of Calcium/calmodulin-dependent protein kinase type II subunit alpha (Homo sapiens) (Q9UQM7 whole entry, the tested form may be a part): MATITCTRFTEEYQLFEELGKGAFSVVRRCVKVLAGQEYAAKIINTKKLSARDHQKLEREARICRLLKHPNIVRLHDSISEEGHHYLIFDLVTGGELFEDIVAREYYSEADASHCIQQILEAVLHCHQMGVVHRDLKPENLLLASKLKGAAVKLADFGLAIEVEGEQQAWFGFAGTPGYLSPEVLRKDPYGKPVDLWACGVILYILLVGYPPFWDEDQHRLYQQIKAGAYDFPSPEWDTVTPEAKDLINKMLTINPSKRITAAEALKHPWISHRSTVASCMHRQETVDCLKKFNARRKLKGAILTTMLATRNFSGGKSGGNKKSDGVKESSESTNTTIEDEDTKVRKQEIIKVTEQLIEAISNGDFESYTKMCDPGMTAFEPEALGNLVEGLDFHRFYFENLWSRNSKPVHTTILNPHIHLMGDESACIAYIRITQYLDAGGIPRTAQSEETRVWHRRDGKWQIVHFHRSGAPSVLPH
Chain of Aurora kinase C (Homo sapiens) (Q9UQB9 whole entry, the tested form may be a part): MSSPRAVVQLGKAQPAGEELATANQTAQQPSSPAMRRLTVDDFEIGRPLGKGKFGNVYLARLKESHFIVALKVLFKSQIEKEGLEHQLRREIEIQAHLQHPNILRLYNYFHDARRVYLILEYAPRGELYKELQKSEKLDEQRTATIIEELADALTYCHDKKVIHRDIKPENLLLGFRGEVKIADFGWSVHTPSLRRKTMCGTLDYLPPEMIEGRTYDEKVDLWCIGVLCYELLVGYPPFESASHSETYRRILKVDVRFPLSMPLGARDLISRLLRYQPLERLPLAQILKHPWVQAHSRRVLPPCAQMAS
Chain of Mitogen-activated protein kinase 8 (Homo sapiens) (P45983 whole entry, the tested form may be a part): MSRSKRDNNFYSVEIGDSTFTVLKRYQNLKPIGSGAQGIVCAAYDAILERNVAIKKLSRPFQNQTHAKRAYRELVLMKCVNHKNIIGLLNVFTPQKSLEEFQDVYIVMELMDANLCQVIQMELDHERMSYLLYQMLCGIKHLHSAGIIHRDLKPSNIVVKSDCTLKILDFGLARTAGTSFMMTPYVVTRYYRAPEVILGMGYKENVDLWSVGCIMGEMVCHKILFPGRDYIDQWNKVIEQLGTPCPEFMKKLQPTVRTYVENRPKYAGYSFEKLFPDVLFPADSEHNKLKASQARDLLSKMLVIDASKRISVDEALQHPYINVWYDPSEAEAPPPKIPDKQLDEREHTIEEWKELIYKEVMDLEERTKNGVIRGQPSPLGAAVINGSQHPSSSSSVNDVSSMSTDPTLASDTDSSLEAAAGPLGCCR

The term inhibition denotes the change of the read-out against control, counted positive when it falls. With `Cc1cc(C)c(CNC(=O)c2cc(Br)c3c(c2C)O[C@@](C)([C@H]2CC[C@H](N(C)C)CC2)O3)c(=O)[nH]1`, the inhibition in [1] is -3%; in assay [2], -9.2%; in [3], -3.4%; in [4] it was -1.5%; in [5], -4.4%; in assay [6] it was -1.5%. Also, the inhibition in [7] was -1.4%; in [8], 2.9%; in assay [9], 4.8%; in assay [10], -3.4%; in [11], 2.2%; in assay [12] it was -3.2%. Further, the inhibition is -6.1% in [13]; -3.7% in [14]; -3.3% in assay [15]; -6.2% in assay [16]; -1.1% in assay [17]; -0.3% in assay [18]. The inhibition in [19] is -1.8%; in assay [20] it was -2.3%; in assay [21], 3%; in [22] it was -4%.
As for `Cc1cc(C)c(CNC(=O)c2cc(Cl)c3c(c2C)O[C@@](C)([C@H]2CC[C@H](N(C)C)CC2)O3)c(=O)[nH]1` [VALEMETOSTAT], the inhibition is -3.8% in assay [1]; 21.9% in assay [2]; -4.9% in [3]; -2.3% in assay [4]; -5.2% in [5]; -1.6% in [6]. Moreover, the inhibition is 3.1% in assay [7]; 1.3% in assay [8]; 0.1% in assay [9]; -6.8% in [10]; 3.3% in assay [11]; 0.1% in [12]. The inhibition in assay [13] is -4.7%; in [14], -5.8%; in assay [15], -3.3%; in [16], -1.9%; in [17], -2.8%; in [18] it was -1.4%. The inhibition in assay [19] is 0.1%; in [20] it was -5.7%; in [21] it was -3%; in assay [22], -0.5%.

Source of the values: ChEMBL document CHEMBL5647694, “Novel orally bioavailable EZH1/2 dual inhibitors with greater antitumor efficacy than an EZH2 selective inhibitor” (Cancer Sci, 2017).
